The source of these data is patent publication US8575156B2, “Cyclic inhibitors of 11β-hydroxysteroid dehydrogenase 1” (Vitae Pharmaceuticals, Inc., priority 2007, dated 2013).

Each structure is given as a SMILES string. Where two headings read alike, the source gives them in different places. Some results are limits rather than exact numbers.

Experiment [1] has as its target T1, 11β-HSD1 (Homo sapiens, UniProt P28845). The following applies: for Average % inhibition at 100 nM: 0.1 µM; for IC50: read-out: IC50 Range, microsomes from CHO cells overexpressing human 11β-HSD1; for Average % inhibition at 111.1 nM: 111.1 nM compound, 0.1111 µM.
The target in experiment [2] is T1, 11β-HSD1. Description: biochemical. The following applies: for IC50: IC50 Range; for inhibition at 0.1111 µM: read-out: Average % inhibition at 111.1 nM, Biological Test Example 1, 111.1 nM compound.
Where [3] appears, read: Biological Test Example 1, 100 nM compound.
Setting [4] is: Biological Test Example 1, microsomes from CHO cells overexpressing human 11β-HSD1.
Setting [5] is: Biological Test Example 1, 100 nM.

T1 sequence (P28845 whole entry): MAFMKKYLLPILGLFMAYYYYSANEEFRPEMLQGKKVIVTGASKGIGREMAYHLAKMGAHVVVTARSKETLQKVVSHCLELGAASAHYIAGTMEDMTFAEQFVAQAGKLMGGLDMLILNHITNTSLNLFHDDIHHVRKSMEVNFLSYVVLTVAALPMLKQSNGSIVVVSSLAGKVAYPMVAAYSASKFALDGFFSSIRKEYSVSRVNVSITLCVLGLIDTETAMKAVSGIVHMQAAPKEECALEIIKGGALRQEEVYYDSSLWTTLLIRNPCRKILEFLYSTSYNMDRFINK

Broadly, the IC50 is the concentration at which inhibition is half-maximal. Turning to `CC(C)(C)OC(=O)N1CCC(N2CCC(CCCO)(c3ccccc3)OC2=O)C1` (single isomer, unassigned) [EXAMPLE 208 Isomer 1], on 11β-HSD1 [1] (setting [3]), the “Average % inhibition at 100 nM” value is 76.6%. The IC50 on 11β-HSD1 [2] (setting [4]) is below 100 nM.

For `C[C@@H](c1ccc(-c2ccc(F)cc2F)cc1)N1CC[C@](CC(O)CNC(N)=O)(c2ccc(F)cc2)OC1=O` (single isomer, unassigned) [EXAMPLE 276 Isomer 1], the “Average % inhibition at 100 nM” value at 11β-HSD1 [1] (setting [3]) came to 83.1%. The IC50 at 11β-HSD1 [2] (setting [4]) is below 100 nM.

On to `CC(C)(C)OC(=O)N1CCC(N2CCC(CCCO)(c3ccccc3)OC2=O)C1` (single isomer, unassigned) [EXAMPLE 208 Isomer 3], for which the “Average % inhibition at 100 nM” value on 11β-HSD1 [1] (setting [3]) came to 64.6%. This compound also came in with an IC50 on 11β-HSD1 [2] (setting [4]) below 100 nM.

For `C[C@@H](c1ccc(Br)cc1)N1CCC(CCCO)(C(C)(C)C)OC1=O` (single isomer, unassigned) [EXAMPLE 335 Isomer 1], on 11β-HSD1 [1] (setting [5]), the “Average % inhibition at 100 nM” value came out at 48.2%. Besides, at 11β-HSD1 [2] (setting [4]), the IC50 was below 100 nM.

On to `CC(C)C1(CCCO)CCN([C@@H](C)c2ccc(Cl)cc2)C(=O)O1` (single isomer, unassigned) [EXAMPLE 187 Isomer 1], for which the “Average % inhibition at 100 nM” value at 11β-HSD1 [1] stood at 98.7%. The IC50 against 11β-HSD1 [2] (setting [4]) was below 100 nM.

A word on the inhibition: it is the change of the read-out against control, counted positive when it falls. On to `C=CCC1(c2cccs2)CCN([C@@H](C)c2ccc(Br)cc2)C(=O)O1` (single isomer, unassigned) [EXAMPLE 157 Isomer 2], for which, at 11β-HSD1 [1] (setting [3]), the “Average % inhibition at 100 nM” value amounted to 92.9%. Further, the IC50 at 11β-HSD1 [1] (Biological Test Example 1) was below 100 nM. For the same compound, the inhibition at 0.1111 µM on 11β-HSD1 [2] was 90.7%.

Take `C[C@@H](c1ccc(-c2ccc(F)cc2F)cc1)N1CC[C@](CC(O)CO)(c2ccc(F)cc2)OC1=O` (single isomer, unassigned) [EXAMPLE 52 Isomer 2]: on 11β-HSD1 [1] (setting [3]), the “Average % inhibition at 100 nM” value is 90.8%. Also, the IC50 on 11β-HSD1 [1] (Biological Test Example 1) is below 100 nM. Also, the inhibition at 0.1111 µM at 11β-HSD1 [2] was determined as 97%.

As to `C[C@@H](c1ccc(-c2ccc(F)cc2)cc1)N1CC[C@](CC(O)CNS(C)(=O)=O)(c2ccc(F)cc2)OC1=O` (single isomer, unassigned) [EXAMPLE 277 Isomer 1], the “Average % inhibition at 100 nM” value at 11β-HSD1 [1] amounted to 91.1%. The compound further returned a half-inhibitory concentration (IC50) against 11β-HSD1 [2] below 100 nM.

As to `O=C1OC(CCO)(c2ccccc2)CCN1c1ccc(F)c(-c2ccc(F)cc2)c1` (single isomer, unassigned) [EXAMPLE 96 Isomer 1], the “Average % inhibition at 111.1 nM” value at 11β-HSD1 [1] (Biological Test Example 1) is 98.5%. At 11β-HSD1 [2] (setting [4]), this compound had an IC50 below 100 nM. For the same compound, the inhibition at 0.1 µM at 11β-HSD1 [2] (read-out: Average % inhibition at 100 nM, Biological Test Example 1, 100 nM compound) was found to be 88.3%.

For `O=C1OC(CCCO)(c2ccccc2)CCN1C1CC1c1ccccc1` (single isomer, unassigned) [EXAMPLE 188 Isomer 2, 6-(3-hydroxypropyl)-6-phenyl-3-(2-phenylcyclopropyl)-1,3-oxazinan-2-one], the “Average % inhibition at 100 nM” value on 11β-HSD1 [1] (setting [3]) is reported as 31.7%. Moreover, the IC50 against 11β-HSD1 [2] (setting [4]) was above 100 nM.

As to `CC(C)C1(CCC(N)=O)CCN([C@@H](C)c2ccc(Cl)cc2)C(=O)O1` (single isomer, unassigned) [EXAMPLE 334 Isomer 2], at 11β-HSD1 [1] (setting [5]), the “Average % inhibition at 100 nM” value is listed as 31.9%. The compound further registered an IC50 against 11β-HSD1 [2] (setting [4]) above 100 nM.

Consider `C=CCC1(c2ccc(F)cc2)CCN([C@@H](C)c2ccc(Br)cn2)C(=O)O1` (single isomer, unassigned) [EXAMPLE 128 Isomer 2], for which the “Average % inhibition at 111.1 nM” value at 11β-HSD1 [1] (Biological Test Example 1) was 6.5%. Besides, the IC50 on 11β-HSD1 [2] (setting [4]) is above 1000 nM.

Take `COc1ccc([C@H](C)N2CCC(CCC(N)=O)(C(C)C)OC2=O)cc1` (single isomer, unassigned) [EXAMPLE 333 Isomer 1]: at 11β-HSD1 [1] (setting [5]), the “Average % inhibition at 100 nM” value was found to be 96.2%. For the same compound, the IC50 against 11β-HSD1 [2] (setting [4]) is below 100 nM.

Take `C[C@@H](c1ccc(-c2ccc(F)cc2F)cc1)N1CC[C@](CC(O)CN(C)C)(c2ccc(F)cc2)OC1=O` (single isomer, unassigned) [EXAMPLE 273 Isomer 1]: the “Average % inhibition at 100 nM” value at 11β-HSD1 [1] (setting [3]) is reported as 53.6%. The compound further registered an IC50 against 11β-HSD1 [2] (setting [4]) below 100 nM.

Turning to `C[C@@H](c1ccccc1)N1CCC(CO)(c2ccc(F)cc2)OC1=O` (single isomer, unassigned) [EXAMPLE 114 Isomer 2], the “Average % inhibition at 100 nM” value at 11β-HSD1 [1] (setting [3]) is 66.6%. Further, the IC50 against 11β-HSD1 [2] (setting [4]) is below 100 nM.

Take `C[C@@H](c1ccc(-c2ccc(F)cc2F)cc1)N1CCC(CCO)(c2cccs2)OC1=O` (single isomer, unassigned) [EXAMPLE 233 Isomer 1]: the “Average % inhibition at 100 nM” value on 11β-HSD1 [1] (setting [3]) was 98.9%. The IC50 against 11β-HSD1 [2] (setting [4]) was below 100 nM.

With `COc1ccc([C@H](C)N2CCC(CC(O)CO)(c3ccccc3)OC2=O)cc1` (single isomer, unassigned) [EXAMPLE 286 Isomer 1], the “Average % inhibition at 100 nM” value at 11β-HSD1 [1] (setting [3]) stood at 94.1%. This compound also showed an IC50 against 11β-HSD1 [2] (setting [4]) below 100 nM.

Turning to `CC(C)C1(CC(O)CO)CCN([C@@H](C)c2ccc(-c3ccc(F)cc3F)cc2)C(=O)O1` (single isomer, unassigned) [EXAMPLE 223 Isomer 3], at 11β-HSD1 [1] (setting [3]), the “Average % inhibition at 100 nM” value amounted to 27.8%. At 11β-HSD1 [2] (setting [4]), this compound displayed an IC50 above 100 nM.

Turning to `CC(C)C1(CC(O)CO)CCN([C@@H](C)c2ccc(-c3ccc(F)cc3F)cc2)C(=O)O1` (single isomer, unassigned) [EXAMPLE 223 Isomer 4], the “Average % inhibition at 100 nM” value at 11β-HSD1 [1] (setting [3]) stood at 52.5%. The compound further had an IC50 at 11β-HSD1 [2] (setting [4]) above 100 nM.

Consider `C[C@@H](c1ccc(-c2ccc(F)cc2F)cc1)N1CCC(CCCO)(c2cccs2)OC1=O` (single isomer, unassigned) [EXAMPLE 171 Isomer 1], for which the “Average % inhibition at 100 nM” value at 11β-HSD1 [1] (setting [3]) is listed as 95.7%. At 11β-HSD1 [2] (setting [4]), this compound registered an IC50 below 100 nM.

`COc1ccc([C@H](C)N2CCC(CCCO)(c3ccc(F)cc3)OC2=O)cc1` (single isomer, unassigned) [EXAMPLE 201 Isomer 2]: on 11β-HSD1 [1] (setting [3]), the “Average % inhibition at 100 nM” value came out at 27.0%. At 11β-HSD1 [2] (setting [4]), this compound displayed an IC50 above 100 nM.

In the case of `C[C@@H](c1ccc(-c2ccc(F)cc2)cc1)N1CC[C@](CC(O)CN(C)S(C)(=O)=O)(c2ccc(F)cc2)OC1=O` (single isomer, unassigned) [EXAMPLE 278 Isomer 1], the “Average % inhibition at 100 nM” value on 11β-HSD1 [1] (setting [3]) was 86.6%. This compound also had an IC50 against 11β-HSD1 [2] (setting [4]) below 100 nM.
